Key:
[1] = tested on: weed plants such as Avena spp., Lolium multiflorum, Stellaria media, Setaria spp., Sinapis alba and Amaranthus retroflexus; test: Pre-emergence herbicidal activity (pot test under glass); format: in vivo; conditions: applied pre-emergence at a rate of 2 kg or less of active substance per hectare; WP formulation; visual scoring after 3 weeks vs untreated controls
Description: 1. Pre-Emergence Herbicidal Activity Seeds of monocot and dicot weed and crop plants are planted out in sandy loam soil in wood fiber pots and covered with soil. The test compounds, formulated as wettable powders (WP), are then applied to the surface of the soil cover, in the form of an aqueous suspension, at a water application rate of 600 I/ha (converted), in various dosages, with the addition of 0.2% of wetting agent. After the treatment, the pots are set up under glass and held under good growth conditions for the test plants. Visual scoring of the emergence damage to the trial plants is made after a trial period of 3 weeks in comparison with untreated controls (herbicidal activity in percent (%): 100% activity=plants have died, 0% activity=like control plants).

[2] = tested on: weed plants such as Sinapis alba, Echinochloa crus-galli, Cyperus iria, Avena spp., Stellaria media, Setaria spp., and Amaranthus retroflexus; test: Post-emergence herbicidal activity (pot test under glass); format: in vivo; conditions: applied post-emergence (one-leaf stage) at a rate of 2 kg or less of active substance per hectare; WP formulation; visual scoring after about 3 weeks vs untreated controls
Procedure: 2. Post-Emergence Herbicidal Activity Seeds of monocot and dicot weed and crop plants are planted out in sandy loam soil in wood fiber pots, covered with soil, and cultivated under glass under good growth conditions. Two-three weeks after sowing, the trial plants are treated at the one-leaf stage. The test compounds, formulated as wettable powders (WP), are then sprayed onto the green parts of the plants, at a water application rate of 600 I/ha (converted), in various dosages, with the addition of 0.2% of wetting agent. After the trial plants have stood for about 3 weeks under glass under optimum growth conditions, the effect of the products is scored visually in comparison with untreated controls. (herbicidal activity in percent (%): 100% activity=plants have died, 0% activity=like control plants).

| SMILES | herbicidal activity against weed plants, pre-emergence [1] | herbicidal activity against weed plants, post-emergence [2] |
| --- | --- | --- |
| CC1(C)CC(S(=O)(=O)C(Cl)c2ccccc2)=NO1 (stereo not drawn) [Compound I-1.1, 3-{[Chloro(phenyl)methyl]sulfonyl}-5,5-dimethyl-4,5-dihydroisoxazole] | very good herbicidal activity | very good herbicidal activity |
| CC1(C)CC([S+]([O-])C(Cl)c2ccccc2)=NO1 (stereo not drawn) [III-1.1] | very good herbicidal activity | very good herbicidal activity |
| CC1(C)CC([S+]([O-])C(Cl)c2c(F)cccc2Cl)=NO1 (stereo not drawn) [III-5.1, 3-{[Chloro(2-chloro-6-fluorophenyl)methyl]sulfinyl}-5,5-dimethyl-4,5-dihydroisoxazole] | very good herbicidal activity | very good herbicidal activity |
